Measured values as given in ChEMBL document CHEMBL1145756, “Structure-activity relationships of indole cytosolic phospholipase A(2)alpha inhibitors: substrate mimetics” (Bioorg Med Chem Lett, 2003).

What was measured:
[1] = target: T1, Cytosolic phospholipase A2 (Homo sapiens, UniProt P47712); experiment: In vitro inhibition of cystolic phospholipase A2 alpha.
T1 sequence (P47712 whole entry): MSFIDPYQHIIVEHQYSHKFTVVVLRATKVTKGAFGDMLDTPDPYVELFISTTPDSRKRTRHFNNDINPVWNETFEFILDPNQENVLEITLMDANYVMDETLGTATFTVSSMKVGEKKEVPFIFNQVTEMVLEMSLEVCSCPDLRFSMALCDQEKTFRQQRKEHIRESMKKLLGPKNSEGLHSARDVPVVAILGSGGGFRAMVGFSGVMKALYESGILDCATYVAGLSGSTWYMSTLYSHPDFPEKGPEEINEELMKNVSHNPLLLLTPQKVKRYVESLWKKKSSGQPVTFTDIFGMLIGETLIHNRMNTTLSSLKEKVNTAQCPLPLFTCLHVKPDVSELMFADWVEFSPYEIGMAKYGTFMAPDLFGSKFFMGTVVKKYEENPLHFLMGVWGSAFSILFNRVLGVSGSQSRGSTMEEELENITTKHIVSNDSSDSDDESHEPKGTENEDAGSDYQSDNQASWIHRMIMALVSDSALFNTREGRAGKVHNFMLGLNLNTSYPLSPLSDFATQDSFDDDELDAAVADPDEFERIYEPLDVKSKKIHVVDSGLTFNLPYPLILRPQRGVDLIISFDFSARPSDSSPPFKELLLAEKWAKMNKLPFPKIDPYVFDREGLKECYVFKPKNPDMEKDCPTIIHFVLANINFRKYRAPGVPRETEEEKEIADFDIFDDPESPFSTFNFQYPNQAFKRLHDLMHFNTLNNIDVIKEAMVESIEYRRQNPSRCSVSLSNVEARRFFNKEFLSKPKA

[2] = Oral bioavailability in rat (dose 10 mg/kg); format: ADME, organism-based; conditions: in vivo
[3] = target: T1, Cytosolic phospholipase A2; experiment: Inhibitory concentration against cystolic phospholipase A2 alpha receptor (c-PLA2 alpha) using coumarin assay
Homo sapiens = species: Homo sapiens; experiment: Inhibitory concentration against arachidonic acid release determined in human neutrophils PMN assay; format: functional

Structure (SMILES)	IC50 [1] [µM]	bioavailability [2] [%]	IC50 [3] [nM]	IC50 (Homo sapiens) [nM]
COc1cc(C(=O)O)ccc1Cc1cn(C(c2ccccc2)c2ccccc2)c2ccc(NC(=O)OC3CCCC3)cc12	5	–	–	–
COc1cc(C(=O)O)ccc1Cc1cn(C(c2ccccc2)c2ccccc2)c2ccc(NS(C)(=O)=O)cc12	20	–	–	–
COc1cc(C(=O)O)ccc1Cc1cn(C(c2ccccc2)c2ccccc2)c2ccc(S(C)(=O)=O)cc12	2	–	–	–
COc1cc(C(=O)O)ccc1Cc1cn(C(c2ccccc2)c2ccccc2)c2ccc(F)cc12	1	–	–	–
COc1cc(C(=O)O)ccc1Cc1cn(C(c2ccccc2)c2ccccc2)c2cccc(Cl)c12	4.5	–	–	–
COc1cc(C(=O)O)ccc1Cc1cn(C(c2ccccc2)c2ccccc2)c2cc(Cl)ccc12	0.8	63	–	–
COc1cc(C(=O)O)ccc1Cc1cn(C(c2ccccc2)c2ccccc2)c2ccccc12	3.6	–	–	–
COc1cc(C(=O)NS(=O)(=O)c2ccccc2C)ccc1Cc1cn(Cc2ccncc2)c2ccc(NC(=O)OC3CCCC3)cc12	38	–	–	–
CCCCNC(=O)Nc1ccc2c(c1)c(Cc1ccc(C(=O)O)cc1OC)cn2C(c1ccccc1)c1ccccc1	15	–	–	–
COc1cc(C(=O)O)ccc1Cc1cn(C(c2ccccc2)c2ccccc2)c2ccc(Br)cc12	–	16	600	1200
COc1cc(C(=O)NS(=O)(=O)c2ccccc2C)ccc1Cc1cn(C2CCCC2)c2ccc(NC(=O)OC3CCCC3)cc12	17	–	–	–
COc1cc(C(=O)O)ccc1Cc1cn(C(c2ccccc2)c2ccccc2)c2ccc(N)cc12	41	–	–	–
COc1cc(C(=O)NS(=O)(=O)c2ccccc2C)ccc1Cc1cn(CC2CC2)c2ccc(NC(=O)OC3CCCC3)cc12	20	–	–	–
COc1cc(C(=O)O)ccc1Cc1cn(C(c2ccccc2)c2ccccc2)c2ccc(C)cc12	–	38	900	–
COc1cc(C(=O)O)ccc1Cc1cn(C(c2ccccc2)c2ccccc2)c2ccc(N(C)C)cc12	24	–	–	–
COc1cc(C(=O)O)ccc1Cc1cn(C(c2ccccc2)c2ccccc2)c2ccc(Cl)cc12	–	22	400	1800
COc1cc(C(=O)O)ccc1Cc1cn(C(c2ccccc2)c2ccccc2)c2c(Cl)cccc12	2.1	–	–	–
COc1cc(C(=O)O)ccc1Cc1cn(C(c2ccccc2)c2ccccc2)c2ccc([N+](=O)[O-])cc12	–	–	400	1800
COc1ccc2c(c1)c(Cc1ccc(C(=O)O)cc1OC)cn2C(c1ccccc1)c1ccccc1	1.9	–	–	–
COc1cc(C(=O)NS(=O)(=O)c2ccccc2C)ccc1Cc1cn(C(c2ccccc2)c2ccccc2)c2ccc(NC(=O)OC3CCCC3)cc12	6	–	–	–
COc1cc(C(=O)O)ccc1Cc1cn(C(c2ccccc2)c2ccccc2)c2ccc(C#N)cc12	–	19	800	1300
COc1cc(C(=O)NS(=O)(=O)c2ccccc2C)ccc1Cc1cn(C)c2ccc(NC(=O)OC3CCCC3)cc12 [ZAFIRLUKAST]	85	–	–	–
